Assay results as given in PubChem BioAssay AID256 (DTP/NCI, 2004).
Where “and” joins values, the source holds several entries; their conditions need not be identical. Identical values can stand only once. Toxic doses and inconclusive results are not listed.

Test system: CD2F1 mice, L1210 leukemia ip, survival T/C
Experiment: NCI In Vivo Anticancer Drug Screen. Data for tumor model L1210 Leukemia (intraperitoneal) in CD2F1 (CDF1) mice
Settings: higher = longer survival
Method in brief: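 Tumor-bearing mice (transplanted tumor) were split into treated and vehicle control groups, and the measured endpoint of each treated group was divided by that of its vehicle controls.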

[1] = endpoint: mean survival time, dose: 75.0 mg/kg/injection, schedule: Q01DX001 (ip), vehicle: saline
[2] = endpoint: mean survival time, dose: 150.0 mg/kg/injection, schedule: Q01DX001 (ip), vehicle: saline
[3] = endpoint: mean survival time, dose: 75.0 mg/kg/injection, schedule: Q01DX001 (ip), vehicle: other
[4] = endpoint: mean survival time, dose: 25.0 mg/kg/injection, schedule: Q01DX009 (ip), vehicle: saline with Tween-80
[5] = endpoint: mean survival time, dose: 50.0 mg/kg/injection, schedule: Q01DX009 (ip), vehicle: saline with Tween-80
[6] = endpoint: mean survival time, dose: 100.0 mg/kg/injection, schedule: Q01DX001 (ip), vehicle: saline with Tween-80
[7] = endpoint: mean survival time, dose: 100.0 mg/kg/injection, schedule: Q04DX002 (ip), vehicle: saline with Tween-80
[8] = endpoint: mean survival time, dose: 100.0 mg/kg/injection, schedule: Q04DX003 (ip), vehicle: saline with Tween-80
[9] = endpoint: mean survival time, dose: 200.0 mg/kg/injection, schedule: Q01DX001 (ip), vehicle: saline with Tween-80
[10] = endpoint: mean survival time, dose: 200.0 mg/kg/injection, schedule: Q01DX009 (ip), vehicle: saline with Tween-80
[11] = endpoint: mean survival time, dose: 200.0 mg/kg/injection, schedule: Q04DX002 (ip), vehicle: saline with Tween-80
[12] = endpoint: mean survival time, dose: 200.0 mg/kg/injection, schedule: Q04DX003 (ip), vehicle: saline with Tween-80
[13] = endpoint: mean survival time, dose: 400.0 mg/kg/injection, schedule: Q01DX001 (ip), vehicle: saline with Tween-80
[14] = endpoint: mean survival time, dose: 400.0 mg/kg/injection, schedule: Q04DX002 (ip), vehicle: saline with Tween-80
[15] = endpoint: mean survival time, dose: 400.0 mg/kg/injection, schedule: Q04DX003 (ip), vehicle: saline with Tween-80
[16] = endpoint: mean survival time, dose: 100.0 mg/kg/injection, schedule: Q04DX003 (ip), vehicle: saline
[17] = endpoint: mean survival time, dose: 200.0 mg/kg/injection, schedule: Q04DX003 (ip), vehicle: saline
[18] = endpoint: mean survival time, dose: 25.0 mg/kg/injection, schedule: Q04DX003 (ip), vehicle: saline with Tween-80
[19] = endpoint: mean survival time, dose: 50.0 mg/kg/injection, schedule: Q04DX003 (ip), vehicle: saline with Tween-80
[20] = endpoint: mean survival time, dose: 100.0 mg/kg/injection, schedule: Q01DX009 (ip), vehicle: saline with Tween-80
[21] = endpoint: mean survival time, dose: 400.0 mg/kg/injection, schedule: Q01DX009 (ip), vehicle: saline with Tween-80

COc1ccc(C(=O)/C=C/c2ccc(N(C)C)cc2)cc1
T/C [1]: 95 % of control
T/C [2]: 93 % of control

Cc1cc(C)c2ccc(Cl)nc2n1
T/C [3]: 100 % of control

Cc1cc(NC(=O)Oc2ccc([N+](=O)[O-])cc2)ccc1S(=O)(=O)F
T/C [4]: 91 % of control and 98 % of control
T/C [5]: 87 % of control and 96 % of control
T/C [6]: 95 % of control
T/C [7]: 93 % of control and 100 % of control
T/C [8]: 94 % of control
T/C [9]: 101 % of control
T/C [10]: 91 % of control
T/C [11]: 93 % of control and 107 % of control
T/C [12]: 96 % of control
T/C [13]: 98 % of control
T/C [14]: 100 % of control and 103 % of control
T/C [15]: 102 % of control

COc1cc2ccc(/C=C/C(=O)c3ccc4c(c3)OCO4)cc2cc1OC
T/C (endpoint: mean survival time, dose: 25.0 mg/kg/injection, schedule: Q01DX009 (ip), vehicle: water): 98 % of control
T/C (endpoint: mean survival time, dose: 50.0 mg/kg/injection, schedule: Q01DX009 (ip), vehicle: water): 91 % of control
T/C (endpoint: mean survival time, dose: 100.0 mg/kg/injection, schedule: Q01DX009 (ip), vehicle: water): 88 % of control
T/C (endpoint: mean survival time, dose: 200.0 mg/kg/injection, schedule: Q01DX009 (ip), vehicle: water): 90 % of control
T/C (endpoint: mean survival time, dose: 400.0 mg/kg/injection, schedule: Q01DX009 (ip), vehicle: water): 88 % of control

CN1CCC(C#N)(c2ccccn2)CC1
T/C (endpoint: mean survival time, dose: 5.0 mg/kg/injection, schedule: Q01DX009 (ip), vehicle: saline with Tween-80): 95 % of control
T/C (endpoint: mean survival time, dose: 5.0 mg/kg/injection, schedule: Q01DX009 (ip), vehicle: saline): 103 % of control
T/C (endpoint: mean survival time, dose: 10.0 mg/kg/injection, schedule: Q01DX009 (ip), vehicle: saline with Tween-80): 91 % of control
T/C (endpoint: mean survival time, dose: 10.0 mg/kg/injection, schedule: Q01DX009 (ip), vehicle: saline): 106 % of control
T/C (endpoint: mean survival time, dose: 20.0 mg/kg/injection, schedule: Q01DX009 (ip), vehicle: saline): 97 % of control

[N-]=[N+]=C1C(=O)NC(=O)N2C3CC(O)C(COC12)O3 (stereo not drawn)
T/C (endpoint: mean survival time, dose: 75.0 mg/kg/injection, schedule: Q01DX009 (ip), vehicle: saline with Tween-80): 106 % of control
T/C (endpoint: mean survival time, dose: 100.0 mg/kg/injection, schedule: Q01DX009 (ip), vehicle: saline sonified): 114 % of control
T/C [8]: 101 % of control
T/C (endpoint: mean survival time, dose: 150.0 mg/kg/injection, schedule: Q01DX009 (ip), vehicle: saline with Tween-80): 108 % of control
T/C (endpoint: mean survival time, dose: 200.0 mg/kg/injection, schedule: Q01DX009 (ip), vehicle: saline sonified): 120 % of control
T/C [12]: 104 % of control
T/C (endpoint: mean survival time, dose: 300.0 mg/kg/injection, schedule: Q01DX009 (ip), vehicle: saline with Tween-80): 112 % of control
T/C (endpoint: mean survival time, dose: 400.0 mg/kg/injection, schedule: Q01DX009 (ip), vehicle: saline sonified): 121 % of control
T/C [15]: 108 % of control

Clc1ccc(C#Cc2ccc(Cl)cc2)cc1
T/C [3]: 103 % of control
T/C [8]: 100 % of control
T/C (endpoint: mean survival time, dose: 150.0 mg/kg/injection, schedule: Q01DX001 (ip), vehicle: other): 94 % of control
T/C (endpoint: mean survival time, dose: 300.0 mg/kg/injection, schedule: Q01DX001 (ip), vehicle: other): 88 % of control
T/C [15]: 87 % of control

CN(C)C(=NC#N)N(C)C
T/C (endpoint: mean survival time, dose: 100.0 mg/kg/injection, schedule: Q01DX009 (ip), vehicle: saline): 102 % of control
T/C [16]: 100 % of control
T/C (endpoint: mean survival time, dose: 200.0 mg/kg/injection, schedule: Q01DX009 (ip), vehicle: saline): 96 % of control
T/C [17]: 95 % of control
T/C (endpoint: mean survival time, dose: 400.0 mg/kg/injection, schedule: Q01DX009 (ip), vehicle: saline): 96 % of control
T/C (endpoint: mean survival time, dose: 400.0 mg/kg/injection, schedule: Q04DX003 (ip), vehicle: saline): 97 % of control

NC(=O)c1csc(CSCCO)n1
T/C (endpoint: median survival time, dose: 41.75 mg/kg/injection, schedule: Q01DX005 (ip), vehicle: saline): 103 % of control
T/C (endpoint: median survival time, dose: 83.5 mg/kg/injection, schedule: Q01DX005 (ip), vehicle: saline): 104 % of control
T/C (endpoint: median survival time, dose: 167.0 mg/kg/injection, schedule: Q01DX005 (ip), vehicle: saline): 102 % of control
T/C (endpoint: median survival time, dose: 334.0 mg/kg/injection, schedule: Q01DX005 (ip), vehicle: saline): 98 % of control

O=NN(CCCl)C(=O)NC1CCC(=O)NC1=O (stereo not drawn)
T/C (endpoint: median survival time, dose: 15.0 mg/kg/injection, schedule: Q01DX001 (ip), vehicle: saline with Tween-80): 344 % of control
T/C (endpoint: median survival time, dose: 20.0 mg/kg/injection, schedule: Q01DX001 (ip), vehicle: saline with Tween-80): 344 % of control
T/C (endpoint: median survival time, dose: 25.0 mg/kg/injection, schedule: Q01DX001 (ip), vehicle: saline with Tween-80): 344 % of control
T/C (endpoint: median survival time, dose: 30.0 mg/kg/injection, schedule: Q01DX001 (ip), vehicle: saline with Tween-80): 344 % of control

Oc1ccccc1/C=N/c1nc(-c2ccccc2)cs1.[Co].[O-]c1ccccc1/C=N/c1nc(-c2ccccc2)cs1
T/C [9]: 86 % of control
T/C [13]: 89 % of control

O=S1(=O)C2CCCCCC2(N2CCOCC2)C1C1CCCCC1 (stereo not drawn)
T/C [8]: 95 % of control
T/C [12]: 95 % of control
T/C [15]: 97 % of control

O=C(OCC1OCOC1C1OCOC1COC(=O)c1ccccc1)c1ccccc1 (stereo not drawn)
T/C (endpoint: mean survival time, dose: 100.0 mg/kg/injection, schedule: Q04DX003 (ip), vehicle: Klucel (hydroxypropylcellulose) (HPC)): 102 % of control
T/C (endpoint: mean survival time, dose: 200.0 mg/kg/injection, schedule: Q04DX003 (ip), vehicle: Klucel (hydroxypropylcellulose) (HPC)): 97 % of control
T/C (endpoint: mean survival time, dose: 400.0 mg/kg/injection, schedule: Q04DX003 (ip), vehicle: Klucel (hydroxypropylcellulose) (HPC)): 91 % of control

Cc1[se]c2ccccc2[n+]1C
T/C [1]: 98 % of control
T/C [2]: 107 % of control

S=c1nc[nH]c2nc(-c3ccccc3)[nH]c12
T/C (endpoint: mean survival time, dose: 12.5 mg/kg/injection, schedule: Q01DX005 (ip), vehicle: other): 98 % of control
T/C (endpoint: mean survival time, dose: 25.0 mg/kg/injection, schedule: Q01DX005 (ip), vehicle: other): 96 % of control
T/C (endpoint: mean survival time, dose: 50.0 mg/kg/injection, schedule: Q01DX005 (ip), vehicle: other): 102 % of control
T/C (endpoint: mean survival time, dose: 100.0 mg/kg/injection, schedule: Q01DX005 (ip), vehicle: other): 98 % of control
T/C (endpoint: mean survival time, dose: 200.0 mg/kg/injection, schedule: Q01DX005 (ip), vehicle: other): 93 % of control

N=C(N)c1ccc(N)cc1
T/C [16]: 103 % of control
T/C [17]: 101 % of control

O=S(=O)(O)c1ccc(N=Nc2ccc(O)cc2)cc1
T/C [18]: 97 % of control
T/C [19]: 107 % of control
T/C [8]: 100 % of control

Nc1nc(Cl)cc(-c2ccccc2)n1
T/C [8]: 102 % of control
T/C [12]: 90 % of control
T/C [15]: 90 % of control

Cc1c(O)ccc([N+](=O)[O-])c1O
T/C (endpoint: mean survival time, dose: 12.5 mg/kg/injection, schedule: Q04DX003 (ip), vehicle: saline with Tween-80): 107 % of control
T/C [18]: 102 % of control

CC(N)(CCOCc1ccccc1)C(=O)O (stereo not drawn)
T/C [6]: 97 % of control
T/C [20]: 103 % of control
T/C [9]: 96 % of control
T/C [10]: 101 % of control
T/C [13]: 103 % of control
T/C [21]: 101 % of control

CCOC(=O)c1ccc(NC(=S)NC(=O)c2cccc(Br)c2)cc1
T/C [6]: 101 % of control and 112 % of control
T/C [20]: 92 % of control and 98 % of control
T/C [7]: 93 % of control
T/C [8]: 96 % of control
T/C [9]: 97 % of control and 101 % of control
T/C [10]: 94 % of control and 95 % of control
T/C [11]: 95 % of control
T/C [12]: 98 % of control
T/C [13]: 101 % of control
T/C [21]: 97 % of control and 106 % of control
T/C [14]: 96 % of control
T/C [15]: 93 % of control

CC(C)(C)NC/C(=C\c1ccccc1)C(=O)c1ccccc1
T/C [18]: 109 % of control
T/C [19]: 100 % of control
T/C [8]: 117 % of control

[C-]#[N+]C(C)(CC)c1ccccc1 (stereo not drawn)
T/C (endpoint: mean survival time, dose: 35.0 mg/kg/injection, schedule: Q01DX009 (ip), vehicle: saline with Tween-80): 105 % of control

CC#CC(=O)SCCNC(=O)CCNC(=O)CC(C)(C)C
T/C (endpoint: mean survival time, dose: 12.5 mg/kg/injection, schedule: Q01DX009 (ip), vehicle: saline with Tween-80): 101 % of control
T/C [4]: 95 % of control
T/C [18]: 106 % of control
T/C [5]: 98 % of control
T/C [19]: 94 % of control
T/C [20]: 88 % of control
T/C [8]: 98 % of control

O=C(C=C(C(F)(F)F)C(F)(F)F)c1ccc(F)cc1
T/C (endpoint: mean survival time, dose: 100.0 mg/kg/injection, schedule: Q04DX003 (ip), vehicle: other): 88 % of control
